Results reported in patent US9212139B2, “Aryl substituted indoles and their use as blockers of sodium channels” (Purdue Pharma, L.P., priority 2010, dated 2015).
Like-named read-outs stand apart in the source and are kept apart here.

Legend:
human Nav1.7 = human Nav1.7 (Homo sapiens (Human), UniProt Q15858); assay: FLIPR or FLIPR TETRA sodium dye assay with KCl and test article pre-incubation; assay type: cell-based
Excerpt: For dominant selection of the Nav1.7-expressing clones, the expression plasmid co-expressed the neomycin resistance gene. […] Recombinant beta and gamma subunits were not introduced into this cell line. Additional cell lines expressing recombinant Nav1.7 cloned from other species can also be used, alone or in combination with various beta subunits, gamma subunits or chaperones.
Cell maintenance: Unless otherwise noted, cell culture reagents were purchased from Mediatech of Herndon, Va. The recombinant Nav1.7/HEK293 cells were routinely cultured in growth medium consisting of Dulbecco's […] containing 10% fetal bovine serum (FBS, Hyclone, Thermo Fisher Scientific, Logan, Utah), 100 U/mL penicillin, […], 2-4 mM L-glutamine, and […]. For natural, non-recombinant cell lines, the selective antibiotic was omitted, and additional media formulations can be applied as needed.
The intensity of this emission, but not the wavelength range, is increased when the dye is exposed to Na^+ ions, which it can bind with partial selectivity. Cells expressing Nav1.7 or other sodium channels were loaded with the CoroNa™ Green dye immediately in advance of the fluorescence assay, and then, after agonist stimulation, the mobilization of Na^+ ions was detected as the Na^+ ions flowed from the extracellular fluid into the cytoplasm through the activated sodium channel pores. The dye was stored in the dark as a lyophilized powder, and then an aliquot was dissolved immediately before the cell loading procedure, according to the instructions of the manufacturer to a stock concentration of 10 mM in DMSO. It was then diluted in the assay buffer to a 4× concentrated working solution, so that the final concentration of dye in the cell loading buffer was 5 μM.
These scorpion toxins inhibit the fast inactivation of their cognate target channels. Stock solutions of the agonists were prepared to 40 mM in DMSO (veratridine) and 1 mg/mL in dH2O (scorpion venom), and then diluted to make a 4× or 2× stock (depending on the particular assay) in assay buffer, the final concentration being 100 μM (veratridine) and 10 μg/mL (scorpion venom). Both of the agonists were purchased from Sigma Aldrich, St. Louis, Mo.
Test Compounds: Test compounds were dissolved in DMSO to yield 10 mM stock solutions. […] If a particular test article appeared to be especially potent, then the concentration curve was adjusted, e.g., to 10-fold lower concentrations, in order to perform the dose-response in a more relevant concentration range. Compound dilutions were added during the dye-loading and pre-stimulation step, and then again during the fluorescence assay, early in the kinetic read.
Data Analysis: The data were analyzed according to methods known to those skilled in the art or using the GraphPad® Prism 4.0 Program (available from GraphPad Software, San Diego, Calif.) to determine the IC50 value for the test article. At least one standard reference compound was evaluated during each experiment.
FLIPR® or FLIPR^TETRA® sodium dye assay with KCl and test article pre-incubation: Cells were prepared by plating the recombinant HEK293 cells or other host cells expressing either recombinant or non-recombinant, native, Nav1.7 alpha subunit, alone or in combination with various beta and gamma subunits at a density of ˜40,000 cells/well into a 96-well black, clear-bottom, PDL-coated plate. The assay can be adapted to 384-well or 1,536-well format, if desired, using proportionately less cells and media. […] For counter-screens of other voltage-gated sodium channels, the procedure was very similar, though optimal densities of cells, media and subsequent assay components can be fine-tuned for the particular cell line or isoform.

hNav1.7 = hNav1.7 (Homo sapiens (Human), UniProt Q15858); assay: Electrophysiology (EP) assay, whole-cell patch clamp; assay type: cell-based; settings: read-out: EP Nav1.7 Ki
Procedure: Cells: The hNav1.7 expressing HEK-293 cells were plated on 35 mm culture dishes pre-coated with poly-D-lysine in standard DMEM culture media (Mediatech, Inc., Herndon, Va.) and incubated in a 5% CO2 incubator at 37° C. Cultured cells were used approximately 12-48 hours after plating.
Electrophysiology: On the day of experimentation, the 35 mm dish was placed on the stage of an inverted microscope equipped with a perfusion system that continuously perfuses the culture dish with fresh recording media. A gravity driven superfusion system was used to apply test solutions directly to the cell under evaluation. This system consists of an array of glass pipette glass connected to a motorized horizontal translator. The outlet of the shooter was positioned approximately 100 μm from the cell of interest.
Gigaseals were formed and the whole-cell configuration was established in voltage clamp mode, and membrane currents generated by hNav1.7 were recorded in gap-free mode. […] Signals were sampled at 50 kHz and low pass filtered at 3 kHz.
The voltage clamp protocol to examine hNav1.7 currents was as follows. First, the standard current-voltage relationship was tested by pulsing the cell from the holding voltage (Vh) of −120 mV by a series of 5 msec long square-shaped test pulses incrementing in +10 mV steps over the membrane voltage range of −90 mV to +60 mV at the pace of stimulation of 0.5 Hz. This procedure determines the voltage that elicits the maximal current (Vmax). […] This procedure determines the voltage of full inactivation (Vfull). Third, the cell was repeatedly stimulated with the following protocol, first in the absence of the test compound then in its presence. The protocol consisted of depolarizing the cell from the holding potential of −120 mV to the Vfull value for 4.5 seconds then repolarizing the cell to the holding potential for 10 ms before applying the test pulse to the Vmax for 5 ms. The amount of inhibition produced by the test compound was determined by comparing the current amplitude elicited by the test pulse in the absence and presence of the compound.
Vehicle solution used to establish base line was also contacting 0.3% DMSO.
Data analysis: Data was analyzed off-line using Clampfit software (pClamp, v. 8; Axon Instruments) and graphed using GraphPad Prizm (v. 4.0) software.

[1] = sodium dye assay with KCl, recombinant human Nav1.7 in HEK293 cells, value ± SEM
[2] = whole-cell patch clamp, hNav1.7 expressing HEK-293 cells
[3] = read-out: FLIPR Nav1.7 IC50 (μM) ± SEM

Chain of human Nav1.7 (Q15858 other isoform, or with tags, fused parts or gaps): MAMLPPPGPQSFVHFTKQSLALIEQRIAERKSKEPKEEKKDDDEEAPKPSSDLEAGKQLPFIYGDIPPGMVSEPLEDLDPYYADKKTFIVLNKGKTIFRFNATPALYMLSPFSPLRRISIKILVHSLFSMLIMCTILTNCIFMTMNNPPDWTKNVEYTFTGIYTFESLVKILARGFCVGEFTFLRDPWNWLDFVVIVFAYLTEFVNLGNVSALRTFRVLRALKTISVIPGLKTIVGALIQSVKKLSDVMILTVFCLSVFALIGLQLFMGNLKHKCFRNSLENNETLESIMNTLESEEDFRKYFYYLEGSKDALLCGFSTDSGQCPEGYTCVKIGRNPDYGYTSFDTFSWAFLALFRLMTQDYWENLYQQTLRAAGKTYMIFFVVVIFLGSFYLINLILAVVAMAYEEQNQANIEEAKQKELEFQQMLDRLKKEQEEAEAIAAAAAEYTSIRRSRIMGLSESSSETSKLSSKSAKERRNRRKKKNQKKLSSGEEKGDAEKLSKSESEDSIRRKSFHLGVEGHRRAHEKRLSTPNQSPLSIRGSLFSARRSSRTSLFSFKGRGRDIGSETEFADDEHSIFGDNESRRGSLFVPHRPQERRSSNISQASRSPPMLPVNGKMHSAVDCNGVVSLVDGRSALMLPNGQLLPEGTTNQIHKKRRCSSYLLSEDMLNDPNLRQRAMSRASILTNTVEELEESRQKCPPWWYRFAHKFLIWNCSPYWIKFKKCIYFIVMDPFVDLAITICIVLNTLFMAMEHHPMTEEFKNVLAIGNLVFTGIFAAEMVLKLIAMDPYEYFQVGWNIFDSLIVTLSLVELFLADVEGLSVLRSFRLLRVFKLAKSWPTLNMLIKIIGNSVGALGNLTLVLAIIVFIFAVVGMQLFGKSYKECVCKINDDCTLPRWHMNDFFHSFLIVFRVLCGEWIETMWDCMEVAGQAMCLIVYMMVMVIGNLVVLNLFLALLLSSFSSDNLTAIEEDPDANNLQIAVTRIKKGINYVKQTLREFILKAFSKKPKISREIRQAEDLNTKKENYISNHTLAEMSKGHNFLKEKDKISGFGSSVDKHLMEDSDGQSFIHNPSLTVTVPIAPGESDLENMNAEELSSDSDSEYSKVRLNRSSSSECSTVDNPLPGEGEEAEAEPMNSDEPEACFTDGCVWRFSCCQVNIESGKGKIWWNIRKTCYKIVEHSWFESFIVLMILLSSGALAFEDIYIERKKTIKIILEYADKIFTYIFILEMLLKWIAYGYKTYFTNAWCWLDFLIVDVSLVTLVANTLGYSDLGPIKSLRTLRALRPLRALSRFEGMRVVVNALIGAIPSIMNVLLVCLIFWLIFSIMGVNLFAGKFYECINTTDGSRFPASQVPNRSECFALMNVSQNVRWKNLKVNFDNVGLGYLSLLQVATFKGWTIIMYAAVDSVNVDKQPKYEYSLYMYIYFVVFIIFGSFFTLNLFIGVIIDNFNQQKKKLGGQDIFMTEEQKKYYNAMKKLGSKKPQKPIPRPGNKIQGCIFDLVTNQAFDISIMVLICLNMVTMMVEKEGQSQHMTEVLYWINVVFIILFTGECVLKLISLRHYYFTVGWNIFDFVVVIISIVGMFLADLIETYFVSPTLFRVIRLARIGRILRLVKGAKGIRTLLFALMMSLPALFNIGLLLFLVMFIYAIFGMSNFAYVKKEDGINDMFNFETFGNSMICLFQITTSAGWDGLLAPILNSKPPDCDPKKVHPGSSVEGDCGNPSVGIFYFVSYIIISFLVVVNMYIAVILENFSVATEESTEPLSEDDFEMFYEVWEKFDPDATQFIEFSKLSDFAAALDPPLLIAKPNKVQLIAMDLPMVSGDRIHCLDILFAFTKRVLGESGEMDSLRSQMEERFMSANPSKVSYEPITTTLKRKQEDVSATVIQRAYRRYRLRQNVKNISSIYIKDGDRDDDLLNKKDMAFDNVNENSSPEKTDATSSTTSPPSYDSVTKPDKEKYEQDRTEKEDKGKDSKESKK
Chain of hNav1.7 (Q15858 other isoform, or with tags, fused parts or gaps): as above

SMILES | IC50 (human Nav1.7; [1]) [µM] | Ki (hNav1.7; [2]) [nM] | IC50 (human Nav1.7; [3]) [µM] | Ki (hNav1.7) [nM]
NC(=O)C(N)Cc1c[nH]c2ccc(-c3ccc(Oc4ccccc4)cc3)cc12 (stereo not drawn) [Compound 8, 2-Amino-3-[5-(4-phenoxyphenyl)-1H-indol-3-yl]propionamide] | 0.399 ± 0.024 | 670 |  | 
NC(CO)Cc1c[nH]c2ccc(-c3ccc(Oc4ccccc4)cc3)cc12 (stereo not drawn) [Compound 10, 2-Amino-3-[5-(4-phenoxyphenyl)-1H-indol-3-yl]propan-1-ol] |  |  | 0.296 ± 0.087 | 360
NC(CO)Cc1c[nH]c2c(-c3ccc(Oc4ccccc4)cc3)cccc12 (stereo not drawn) [Compound 22, 2-Amino-3-[7-(4-phenoxyphenyl)-1H-indol-3-yl]propan-1-ol] |  |  | 0.151 ± 0.016 | 830
NC(CO)Cc1cn(-c2ccc(Oc3ccccc3)cc2)c2ccccc12 (stereo not drawn) [Compound 34, 2-Amino-3-[1-(4-phenoxyphenyl)-1H-indol-3-yl]propan-1-ol] | 0.389 ± 0.081 | 260 |  | 
NC(=O)C(N)Cc1cn(-c2ccc(Oc3ccccc3)cc2)c2ccccc12 (stereo not drawn) [Compound 35, 2-Amino-3-[1-(4-phenoxyphenyl)-1H-indol-3-yl]propionamide] | 0.278 ± 0.061 | 40 |  | 
N#Cc1cc(Oc2ccc(-n3cc(C[C@@H](N)CO)c4ccccc43)cc2)ccc1C(F)(F)F [Compound 44, (R)-5-{4-[3-(2-Amino-3-hydroxypropyl)-1H-indol-1-yl]phenoxy}-2-(trifluoromethyl)benzonitrile] | 0.304 ± 0.046 | 290 |  | 
CN(C)CCc1cn(-c2ccc(Oc3ccccc3)cc2)c2ccc(C[C@H](N)CO)cc12 [Compound 48, (S)-2-Amino-3-[3-(2-(dimethylamino)ethyl)-1-(4-phenoxyphenyl)-1H-indol-5-yl]propan-1-ol] | 3.82 ± 1.02 | 1310 |  | 
N#Cc1cc(Oc2ccc(-n3cc(C[C@H](O)CO)c4ccccc43)cc2)ccc1C(F)(F)F [Compound 54, (S)-5-{4-[3-(2,3-Dihydroxypropyl)-1H-indol-1-yl]phenoxy}-2-(trifluoromethyl)benzonitrile] | 0.21 ± 0.035 | 70 |  | 
COC(=O)c1ccc2c(C(O)C(N)=O)cn(-c3ccc(Oc4ccc(C(F)(F)F)c(C#N)c4)cc3)c2c1 (stereo not drawn) [Compound 65, Methyl 3-(2-amino-1-hydroxy-2-oxoethyl)-1-(4-(3-cyano-4-(trifluoromethyl)phenoxy)phenyl)-1H-indole-6-carboxylate] | 0.536 ± 0.129 | 1910 |  | 
N#Cc1cc(Oc2ccc(-n3cc(C(O)C(=O)NC[C@H](O)CO)c4ccccc43)cc2)ccc1C(F)(F)F (stereo partly drawn) [Compound 69, 2-(1-(4-(3-Cyano-4-(trifluoromethyl)phenoxy)phenyl)-1H-indol-3-yl)-N—((S)-2,3-dihydroxypropyl)-2-hydroxyacetamide] | 0.732 ± 0.113 | 2670 |  | 
OC[C@@H](O)Cc1cn(C[C@H](O)CO)c2ccc(-c3ccc(Oc4ccc(F)cc4)cc3)cc12 [Compound 74, (2S,2′S)-3,3′-(5-(4-(4-Fluorophenoxy)phenyl)-1H-indole-1,3-diyl)bis(propane-1,2-diol)] | 0.5 ± 0.091 | 920 |  | 
NC(=O)c1cccc2c1c(C[C@H](O)CO)cn2-c1ccc(Oc2ccc(F)cc2)cc1 [Compound 122, (S)-3-(2,3-Dihydroxypropyl)-1-(4-(4-fluorophenoxy)phenyl)-1H-indole-4-carboxamide] | 0.222 ± 0.036 | 300 |  | 
NC(=O)c1nn(-c2ccc(Oc3ccc(C(F)(F)F)cn3)cc2)c2ccccc12 [Compound 155, 1-(4-((5-(Trifluoromethyl)pyridin-2-yl)oxy)phenyl)-1H-indazole-3-carboxamide] |  |  | 0.362 ± 0.06 | 250
N#Cc1ccc(Oc2ccc(-n3cc(C[C@H](O)CO)c4ncccc43)cc2)cc1 [Compound 175, (S)-4-(4-(3-(2,3-Dihydroxypropyl)-1H-pyrrolo[3,2-b]pyridin-1-yl)phenoxy)benzonitrile] | 0.549 ± 0.197 | 170 |  | 
CCN(CC)CCn1cc(C(O)C(N)=O)c2cc(-c3ccc(Oc4ccc(F)cc4)cc3)ccc21 (stereo not drawn) [Compound 179, 2-(1-(2-(Diethylamino)ethyl)-5-(4-(4-fluorophenoxy)phenyl)-1H-indol-3-yl)-2-hydroxyacetamide] | 0.912 ± 0.079 | 270 |  | 
NC(=O)Cn1cc(C[C@H](O)CO)c2cc(-c3ccc(Oc4ccc(F)cc4)cc3)ccc21 [Compound 186, (S)-2-(3-(2,3-Dihydroxypropyl)-5-(4-(4-fluorophenoxy)phenyl)-1H-indol-1-yl)acetamide] | 0.717 ± 0.042 |  |  | 
N#Cc1ccc(Oc2ccc(-n3cc(C(O)(C(N)=O)C(F)(F)F)c4ccccc43)cc2)cc1C(F)(F)F (stereo not drawn) [Compound 192, 2-(1-(4-(4-Cyano-3-(trifluoromethyl)phenoxy)phenyl)-1H-indol-3-yl)-3,3,3-trifluoro-2-hydroxypropanamide] |  |  | 0.475 ± 0.065 | 
N#Cc1ccc(Oc2ccc(-n3cc(C(O)C(N)=O)c4ccccc43)cc2)cc1C(F)(F)F (stereo not drawn) [Compound 193, 2-(1-(4-(4-Cyano-3-(trifluoromethyl)phenoxy)phenyl)-1H-indol-3-yl)-2-hydroxyacetamide] |  |  | 0.414 ± 0.026 | 
NC(=O)C(O)c1cn(-c2ccc(Oc3ccc(C(F)(F)F)cn3)cc2)c2ccccc12 (stereo not drawn) [Compound 195, 2-Hydroxy-2-(1-(4-((5-(trifluoromethyl)pyridin-2-yl)oxy)phenyl)-1H-indol-3-yl)acetamide] | 0.276 ± 0.011 |  |  | 
N[C@H](CO)Cc1cn(-c2ccc(Oc3ccc(C(F)(F)F)cn3)cc2)c2ccccc12 [Compound 196, (S)-2-Amino-3-(1-(4-((5-(trifluoromethyl)pyridin-2-yl)oxy)phenyl)-1H-indol-3-yl)propan-1-ol] | 0.34 ± 0.023 |  |  | 
OCCn1cc(C[C@H](O)CO)c2cc(-c3ccc(Oc4ccc(F)cc4)cc3)ccc21 [Compound 200, (S)-3-(5-(4-(4-fluorophenoxy)phenyl)-1-(2-hydroxyethyl)-1H-indol-3-yl)propane-1,2-diol] | 0.273 ± 0.061 |  |  | 
